Tests used:
[1] = system: subunit I of Complex IV (COX-I); test: Mitobiogenesis In-Cell ELISA, COX-I levels in H9c2 cells; format: cell-based, Rat; settings: H9c2 heart muscle cells, 24 hours treatment; FIG. 7
Experimental: (§1) Mitobiogenesis: MitoBiogenesis™ In-Cell ELISA Kit (Colorimetric) was purchased from Abcam (Cambridge, UK). H9c2 Cells were grown to confluency in 96 well plates and treated with test ingredients for 24 hours at 37° C. Media was removed and cells were washed with Phosphate Buffered Saline provided in the kit. The cells were then fixed and processed as per the protocol provided with the kit. This assay was used to quantify two mitochondrial proteins: subunit I of Complex IV (COX-I) and the 70 kDa subunit of Complex II (SDH-A). No treatment control was used to show relative protein levels in each case.

[2] = system: Microglial Cells (IMG) exposed to Hydrogen Peroxide; test: Cell Protection from Oxidative Stress (Alamar Blue viability); format: cell-based, mice; settings: IMG cells pretreated 24 hours, H2O2 1 hour, 24 hours recovery; FIG. 8
From the text: Cell Lines: Rat Cardiomyoblasts (H9c2) were obtained from ATCC (Virginia, USA). […] Cells were maintained in Dulbecco's Modified Eagle's Medium (DMEM) from Thermofisher (MA, USA) supplemented with 10% Fetal Bovine Serum (FBS) from Thermofisher (MA, USA) and 1% Penicillin-Streptomycin (PS) from MilliporeSigma (MA, USA). Microglial Cells (IMG) were obtained from Kerafast (MA, USA). It is an immortalized microglial cell line isolated from the brains of adult mice. Cells were maintained in DMEM supplemented with 10% FBS and 1% PS.
Cell Protection from Oxidative Stress: IMG cells were grown to confluency and pretreated with test compounds for 24 hours at 37° C. Media was removed and cells were exposed to Hydrogen Peroxide for 1 hour at 37° C. After one hour, H2O2 was removed and cells were incubated in DMEM supplemented with 1% BSA for a further 24 hours at 37° C. to allow them to stabilize. Subsequently, cell viability was assessed using Alamar Blue Cell Viability Reagent from Thermofisher (MA, USA). Alamar Blue Reagent is an oxidized form of redox indicator that is blue in color. When incubated with viable cells, the reagent changes color from blue to red and can be measured by absorbance at 570 nm.
We tested protective effects of individual natural compounds and their combinations in microglial cells exposed to oxidative stress generated by hydrogen peroxide.

[3] = system: Succinate Dehydrogenase (SDH) subunit A; test: Mitobiogenesis In-Cell ELISA, SDH-A levels in H9c2 cells; format: cell-based, Rat; settings: H9c2 cardiac muscle cells, 24 hours treatment; FIG. 6
Experimental: as §1

Row | Molecule | increase of Cox-1 levels compared to control [1] [%] | survival of cells exposed to hydrogen peroxide (viable cells) [2] | increase of SDH levels compared to control [3] [%]
1 | N[C@@H](CS)C(=O)O [cysteine, L Cysteine] | 41 | – | –
2 | O=C([O-])CC(O)C(=O)[O-].[Mg+2] (stereo not drawn) [magnesium malate, Magnesium Malate] | – | about 50% | 86
3 | CSCC[C@H](N)C(=O)O [methionine, Methionine] | – | about 50% | –
4 | CC(=O)C(=O)[O-].[Na+] [sodium pyruvate, Sodium Pyruvate] | – | – | 54
5 | Magnesium Citrate | – | about 50% | –
